Measured values as given in patent US8173813B2, “Quinolone and tetrahydroquinolone and related compounds having NOS inhibitory activity” (NeurAxon, Inc., priority 2007, dated 2012).
Where “and” joins values, the source holds several entries; their conditions need not be identical. Identical values can stand only once. Counter-ions that a name gives are not always drawn. Like-named read-outs stand apart in the source and are kept apart here.

Legend:
Format in all cases: biochemical
[1] = molecular target: Nitric oxide synthase (endothelial, human recombinant) eNOS (Homo sapiens, UniProt P29474); assay: Human eNOS enzyme assay ([3H]L-arginine to [3H]L-citrulline)
[2] = molecular target: Nitric oxide synthase (neuronal, human recombinant) nNOS (Homo sapiens, UniProt P29475); assay: Human nNOS enzyme assay ([3H]L-arginine to [3H]L-citrulline)
[3] = molecular target: iNOS (Mouse) (Mus musculus, UniProt P29477); assay: iNOS (Mouse) enzyme assay; settings: values in parentheses, read-out: iNOS IC50 (rodent data in parentheses)
Method: (§1) nNOS (Rat), eNOS (Rat) and iNOS (Mouse) Enzyme Assay Recombinant rat or mouse NO synthases (iNOS, eNOS, nNOS) were expressed in Sf9 cells (Sigma), 36 mg prot/ml (Bradford). […] Inhibition of NOS was determined by measuring the formation of L-[3H] citrulline from L-[3H] arginine. […] Stop buffer:100 mM Hepes, pH 5.5, 3 mM EDTA, 3 mM EGTA. Enzyme and inhibitor were pre-incubated for 35 min in the presence of NADPH before addition of arginine to initiate the reaction.

[4] = molecular target: nNOS (Rat) (Rattus norvegicus, UniProt P29476); assay: nNOS (Rat) enzyme assay; settings: for IC50: read-out: nNOS IC50 (rodent data in parentheses); for Selectivity eNOS/nNOS (rodent data in parentheses): rodent enzymes
Method: as §1, with “EGTA.” for “EGTA. Enzyme and inhibitor were pre-incubated for 35 min in the presence of NADPH before addition of arginine to initiate the reaction.”

[5] = molecular target: Recombinant human inducible NOS (iNOS) (Homo sapiens, UniProt P35228); assay: Human iNOS enzyme assay, radiometric
[6] = molecular target: eNOS (Rat) (Rattus norvegicus, UniProt Q62600); assay: eNOS (Rat) enzyme assay; settings: values in parentheses; for IC50: read-out: eNOS IC50 (rodent data in parentheses)
[7] = human recombinant eNOS, values without parentheses, read-out: heNOS IC50
[8] = human enzymes, ratio of eNOS IC50 to nNOS IC50
[9] = human recombinant nNOS, values without parentheses, read-out: hnNOS IC50
[10] = rat nNOS, values in parentheses
[11] = human recombinant iNOS, values without parentheses, read-out: hiNOS IC50

Sequence of Nitric oxide synthase (neuronal, human recombinant) nNOS (P29475 whole entry): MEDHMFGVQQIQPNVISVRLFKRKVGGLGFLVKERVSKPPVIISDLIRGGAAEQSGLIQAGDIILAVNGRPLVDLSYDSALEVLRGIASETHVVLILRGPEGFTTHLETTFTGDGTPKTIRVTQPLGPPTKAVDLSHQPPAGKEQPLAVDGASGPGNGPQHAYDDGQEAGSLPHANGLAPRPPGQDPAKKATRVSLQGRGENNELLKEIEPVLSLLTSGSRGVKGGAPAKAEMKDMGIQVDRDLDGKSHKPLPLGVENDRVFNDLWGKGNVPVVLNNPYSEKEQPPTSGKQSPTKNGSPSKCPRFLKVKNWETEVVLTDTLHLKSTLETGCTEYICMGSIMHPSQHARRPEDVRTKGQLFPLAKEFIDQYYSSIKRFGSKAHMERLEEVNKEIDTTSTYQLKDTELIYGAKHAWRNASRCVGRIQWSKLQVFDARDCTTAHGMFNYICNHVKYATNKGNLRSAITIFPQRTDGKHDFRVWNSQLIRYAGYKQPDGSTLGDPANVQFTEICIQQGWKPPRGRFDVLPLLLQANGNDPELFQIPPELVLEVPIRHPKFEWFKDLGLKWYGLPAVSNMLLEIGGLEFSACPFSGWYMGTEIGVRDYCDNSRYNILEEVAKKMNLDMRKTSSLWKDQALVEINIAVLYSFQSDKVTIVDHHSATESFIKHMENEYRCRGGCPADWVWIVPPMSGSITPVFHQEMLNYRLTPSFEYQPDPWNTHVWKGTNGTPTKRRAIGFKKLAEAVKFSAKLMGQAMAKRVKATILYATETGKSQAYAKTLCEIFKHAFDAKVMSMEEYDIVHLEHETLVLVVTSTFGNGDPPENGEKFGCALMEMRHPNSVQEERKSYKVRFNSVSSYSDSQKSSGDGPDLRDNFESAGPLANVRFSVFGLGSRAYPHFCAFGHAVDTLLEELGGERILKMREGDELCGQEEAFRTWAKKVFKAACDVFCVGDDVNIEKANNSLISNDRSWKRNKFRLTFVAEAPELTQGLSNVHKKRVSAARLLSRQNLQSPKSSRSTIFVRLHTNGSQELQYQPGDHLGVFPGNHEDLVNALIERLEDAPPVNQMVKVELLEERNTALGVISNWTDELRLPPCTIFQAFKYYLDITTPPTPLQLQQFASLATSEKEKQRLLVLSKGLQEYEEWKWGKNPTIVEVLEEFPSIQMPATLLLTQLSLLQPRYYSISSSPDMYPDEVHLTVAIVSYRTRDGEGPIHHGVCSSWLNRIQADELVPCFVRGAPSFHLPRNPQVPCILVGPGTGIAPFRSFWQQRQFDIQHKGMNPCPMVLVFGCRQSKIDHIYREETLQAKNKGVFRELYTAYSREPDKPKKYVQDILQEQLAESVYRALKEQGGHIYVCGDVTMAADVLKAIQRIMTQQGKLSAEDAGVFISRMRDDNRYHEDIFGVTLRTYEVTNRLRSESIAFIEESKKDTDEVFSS
Sequence of eNOS (Rat) (Q62600 2-1202): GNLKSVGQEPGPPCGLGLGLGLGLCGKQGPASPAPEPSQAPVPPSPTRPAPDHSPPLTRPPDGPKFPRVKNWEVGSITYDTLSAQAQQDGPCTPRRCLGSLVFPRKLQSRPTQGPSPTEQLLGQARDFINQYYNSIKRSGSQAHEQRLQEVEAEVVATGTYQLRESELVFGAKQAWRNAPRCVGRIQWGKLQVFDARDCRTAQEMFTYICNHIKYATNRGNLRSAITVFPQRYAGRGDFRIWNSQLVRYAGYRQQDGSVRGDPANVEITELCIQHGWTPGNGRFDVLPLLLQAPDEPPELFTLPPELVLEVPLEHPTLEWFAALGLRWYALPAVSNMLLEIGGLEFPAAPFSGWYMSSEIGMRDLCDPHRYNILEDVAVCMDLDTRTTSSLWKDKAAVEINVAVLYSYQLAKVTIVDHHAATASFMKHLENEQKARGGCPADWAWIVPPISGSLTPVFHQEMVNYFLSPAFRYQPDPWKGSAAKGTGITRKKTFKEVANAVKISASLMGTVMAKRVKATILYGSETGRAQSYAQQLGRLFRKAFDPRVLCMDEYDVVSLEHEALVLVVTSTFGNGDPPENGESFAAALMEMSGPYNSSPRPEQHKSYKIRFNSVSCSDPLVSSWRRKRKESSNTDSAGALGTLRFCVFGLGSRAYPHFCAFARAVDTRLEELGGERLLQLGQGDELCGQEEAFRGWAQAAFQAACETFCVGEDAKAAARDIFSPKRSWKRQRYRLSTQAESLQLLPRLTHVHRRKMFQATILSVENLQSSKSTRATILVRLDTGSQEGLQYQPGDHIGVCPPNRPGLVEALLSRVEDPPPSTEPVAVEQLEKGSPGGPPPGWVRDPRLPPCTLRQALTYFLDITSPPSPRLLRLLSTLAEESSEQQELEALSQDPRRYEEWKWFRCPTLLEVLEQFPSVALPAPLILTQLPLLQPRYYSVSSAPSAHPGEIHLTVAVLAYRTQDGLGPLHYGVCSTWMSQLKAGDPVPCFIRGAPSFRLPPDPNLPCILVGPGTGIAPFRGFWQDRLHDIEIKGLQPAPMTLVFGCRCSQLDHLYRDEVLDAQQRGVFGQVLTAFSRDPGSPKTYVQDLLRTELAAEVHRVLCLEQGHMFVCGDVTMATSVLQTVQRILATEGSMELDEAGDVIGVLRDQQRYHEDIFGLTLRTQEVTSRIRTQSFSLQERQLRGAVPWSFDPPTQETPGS
Sequence of Recombinant human inducible NOS (iNOS) (P35228 whole entry): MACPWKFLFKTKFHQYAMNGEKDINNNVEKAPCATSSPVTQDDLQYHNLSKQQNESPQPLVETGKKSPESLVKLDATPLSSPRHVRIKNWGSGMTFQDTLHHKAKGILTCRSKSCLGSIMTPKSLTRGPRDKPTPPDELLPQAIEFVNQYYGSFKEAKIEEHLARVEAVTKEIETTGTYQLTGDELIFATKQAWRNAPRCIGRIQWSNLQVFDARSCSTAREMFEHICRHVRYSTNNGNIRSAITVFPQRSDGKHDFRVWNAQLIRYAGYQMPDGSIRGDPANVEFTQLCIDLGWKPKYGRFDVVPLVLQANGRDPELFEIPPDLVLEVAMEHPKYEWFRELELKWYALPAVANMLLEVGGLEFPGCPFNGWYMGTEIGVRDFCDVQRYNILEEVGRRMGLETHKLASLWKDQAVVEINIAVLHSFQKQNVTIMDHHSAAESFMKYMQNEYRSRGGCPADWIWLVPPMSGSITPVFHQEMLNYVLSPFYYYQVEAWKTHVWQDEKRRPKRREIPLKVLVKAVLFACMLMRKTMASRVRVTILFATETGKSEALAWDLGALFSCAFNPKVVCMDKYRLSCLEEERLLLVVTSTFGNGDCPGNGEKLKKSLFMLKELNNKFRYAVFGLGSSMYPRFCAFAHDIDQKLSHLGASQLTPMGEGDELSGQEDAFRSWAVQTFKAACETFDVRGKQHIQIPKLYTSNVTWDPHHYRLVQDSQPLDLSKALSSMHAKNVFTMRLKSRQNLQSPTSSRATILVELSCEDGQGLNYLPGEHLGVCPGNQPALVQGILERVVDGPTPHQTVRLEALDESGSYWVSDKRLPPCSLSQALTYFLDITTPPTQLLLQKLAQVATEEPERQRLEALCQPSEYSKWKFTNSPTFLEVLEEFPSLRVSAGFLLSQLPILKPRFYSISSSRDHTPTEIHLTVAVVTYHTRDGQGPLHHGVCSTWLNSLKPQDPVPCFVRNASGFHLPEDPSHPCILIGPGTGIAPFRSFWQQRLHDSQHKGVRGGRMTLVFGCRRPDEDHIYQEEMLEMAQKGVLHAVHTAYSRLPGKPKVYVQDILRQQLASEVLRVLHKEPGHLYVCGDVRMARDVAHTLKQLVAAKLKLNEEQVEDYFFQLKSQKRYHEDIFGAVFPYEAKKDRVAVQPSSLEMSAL
Sequence of Nitric oxide synthase (endothelial, human recombinant) eNOS (P29474 2-1203): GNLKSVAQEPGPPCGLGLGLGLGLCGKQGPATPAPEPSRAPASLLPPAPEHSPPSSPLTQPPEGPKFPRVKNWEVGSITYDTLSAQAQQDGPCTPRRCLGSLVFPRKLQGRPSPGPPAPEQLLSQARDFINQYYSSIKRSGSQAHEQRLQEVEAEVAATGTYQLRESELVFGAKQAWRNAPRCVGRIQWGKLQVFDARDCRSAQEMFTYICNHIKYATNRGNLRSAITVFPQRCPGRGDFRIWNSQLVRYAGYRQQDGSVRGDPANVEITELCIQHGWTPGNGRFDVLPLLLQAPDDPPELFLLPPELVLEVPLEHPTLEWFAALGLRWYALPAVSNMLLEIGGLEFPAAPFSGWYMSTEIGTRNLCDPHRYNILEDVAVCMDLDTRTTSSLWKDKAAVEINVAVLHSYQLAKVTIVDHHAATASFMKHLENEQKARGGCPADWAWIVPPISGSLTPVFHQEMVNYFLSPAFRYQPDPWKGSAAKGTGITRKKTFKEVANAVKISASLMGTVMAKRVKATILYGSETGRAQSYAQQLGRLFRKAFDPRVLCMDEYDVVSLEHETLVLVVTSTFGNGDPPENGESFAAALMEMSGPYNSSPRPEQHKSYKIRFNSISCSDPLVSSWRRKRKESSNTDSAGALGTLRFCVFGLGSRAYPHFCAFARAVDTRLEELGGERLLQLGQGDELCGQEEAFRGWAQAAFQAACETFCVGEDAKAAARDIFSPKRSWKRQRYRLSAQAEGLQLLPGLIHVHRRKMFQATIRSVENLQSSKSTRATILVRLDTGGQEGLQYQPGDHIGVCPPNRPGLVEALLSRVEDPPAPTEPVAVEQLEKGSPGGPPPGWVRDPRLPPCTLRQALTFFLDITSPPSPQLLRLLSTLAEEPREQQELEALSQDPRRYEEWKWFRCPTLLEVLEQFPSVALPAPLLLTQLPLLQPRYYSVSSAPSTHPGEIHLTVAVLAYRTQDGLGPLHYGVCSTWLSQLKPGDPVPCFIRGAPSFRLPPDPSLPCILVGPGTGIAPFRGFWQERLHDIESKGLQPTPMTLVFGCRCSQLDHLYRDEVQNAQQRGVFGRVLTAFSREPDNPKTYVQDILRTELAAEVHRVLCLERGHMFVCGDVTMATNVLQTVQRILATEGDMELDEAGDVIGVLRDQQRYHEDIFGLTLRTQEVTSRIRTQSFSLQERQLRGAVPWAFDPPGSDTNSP

Row | SMILES | IC50 [1, 7] | Selectivity eNOS/nNOS [2, 8] | IC50 [2, 9] | IC50 [3] [µM] | IC50 [4, 10] [µM] | IC50 [5, 11] | IC50 [6] [µM] | IC50 ([1]; read-out: heNOS IC50) [µM] | other results
1 | CN(CCO)CCN1CCCc2cc(NC(=N)c3cccs3)ccc21 [Example 62, N-(1-(2-((2-Hydroxyethyl)(methyl)amino)ethyl)-1,2,3,4-tetrahydroquinolin-6-yl)thiophene-2-carboximidamide] | 63.9 µM | 492 | 0.13 µM | 7 | 0.94 |  |  |  | 
2 | CN(C)CCN1CCCc2ccc(NC(=N)c3cccs3)cc21 [Example 32, N-(1-(2-(Dimethylamino)ethyl)-1,2,3,4-tetrahydroquinolin-7-yl)thiophene-2-carboximidamide] | 37.7 µM | 83.2 | 0.45 µM | > 100 | 0.94 | 0.26 µM | > 100 |  | 
3 | CN1CCC(N2CCCc3cc(NC(=N)c4cccs4)ccc32)C1 (single isomer, unassigned) [Example 56, N-(1-(1-Methylpyrrolidin-3-yl)-1,2,3,4-tetrahydroquinolin-6-yl)thiophene-2-carboximidamide] | 18.3 µM | 203 | 0.09 µM |  | 0.087 | 34 µM | 4.5 |  | 
4 | CN1CCCC1CCN1CCCc2cc(NC(=N)c3cccs3)ccc21 (stereo not shown) [Example 14, N-(1-(2-(1-methylpyrrolidin-2-yl)ethyl)-1,2,3,4-tetrahydroquinolin-6-yl)thiophene-2-carboximidamide] | 17.4 µM | 137 |  | > 100 |  |  | 35 |  | IC50 [4]: 0.17 µM; Selectivity eNOS/nNOS (rodent data in parentheses) ([4]; values in parentheses): (206); IC50 ([5]; read-out: hiNOS IC50): > 100 µM
5 | CNCCN1CCCc2ccc(NC(=N)c3cccs3)cc21 [Example 44, N-(1-(2-(Methylamino)ethyl)-1,2,3,4-tetrahydroquinolin-7-yl)thiophene-2-carboximidamide] | 22.4 µM | 187 | 0.12 µM | 4.3 | 0.48 | > 100 µM | 0.63 |  | 
6 | CNCCN1CCCc2cc(NC(=N)c3cccs3)ccc21.Cl.Cl [Example 30, N-(1-(2-(Methylamino)ethyl)-1,2,3,4-tetrahydroquinolin-6-yl)thiophene-2-carboximidamide dihydrochloride] | 24.7 µM and 29 µM |  | 0.57 µM and 0.38 µM and 0.18 µM | > 100 | 0.192 | > 100 µM |  | 40.7 | eNOS IC50 (rodent data in parentheses) [6]: (inactive)
7 | N=C(Nc1ccc2c(c1)CCCN2C1CCNC1)c1cccs1 (stereo not shown) [Example 29, N-(1-(Pyrrolidin-3-yl)-1,2,3,4-tetrahydroquinolin-6-yl)thiophene-2-carboximidamide dihydrochloride] |  |  |  | > 100 | 0.15 | 15.6 µM and 6.94 µM | > 100 | 23.5 | IC50 ([2]; read-out: hnNOS IC50): 0.25 µM
8 | CCNCCN1CCCc2cc(NC(=N)c3cccs3)ccc21 [Example 60, N-(1-(2-(Ethylamino)ethyl)-1,2,3,4-tetrahydroquinolin-6-yl)thiophene-2-carboximidamide] | 52.8 µM | 135 | 0.39 µM |  | 0.44 | 16.6 µM | > 100 |  | Selectivity eNOS/nNOS (rodent data in parentheses) ([4]; values in parentheses): (>227)
9 | N=C(Nc1ccc2c(c1)CCCC(=O)N2CCN1CCCCC1)c1cccs1 [Example 38, N-(2-Oxo-1-(2-(piperidin-1-yl)ethyl)-2,3,4,5-tetrahydro-1H-benzo[b]azepin-7-yl)thiophene-2-carboximidamide] | 148 µM | 14.8 | 10 µM |  |  | 8.21 µM |  |  | 
10 | CCN(CC)CCN1C(=O)CCc2cc(NC(=N)c3cccs3)ccc21 [Example 2, N-(1-(2-(diethylamino)ethyl)-2-oxo-1,2,3,4-tetrahydroquinolin-6-yl)thiophene-2-carboximidamide] |  |  |  |  |  | 22 µM |  | 73.6 | IC50 ([2]; read-out: hnNOS IC50): 2.21 µM
11 | Cl.Cl.N=C(Nc1ccc2c(c1)CCCN2CCN1CCCC1)c1cccs1 [Example 12, N-(1-(2-(pyrrolidin-1-yl)ethyl)-1,2,3,4-tetrahydroquinolin-6-yl)thiophene-2-carboximidamide dihydrochloride] | 36 µM | 115 | 0.31 µM | > 100 | 1.9 |  | > 100 |  | 
12 | CCN(CC)CCCN1C(=O)CCc2cc(NC(=N)c3cccs3)ccc21 [Example 7, N-(1-(3-(diethylamino)propyl)-2-oxo-1,2,3,4-tetrahydroquinolin-6-yl)thiophene-2-carboximidamide] | 13.9 µM |  | 0.869 µM |  |  | > 100 µM |  |  | Selectivity eNOS/nNOS [2]: 16
13 | N=C(Nc1ccc2c(c1)CCCN2C1CCNC1)c1cccs1 (single isomer, unassigned; (-)) [Example 65, (−)-N-(1-(pyrrolidin-3-yl)-1,2,3,4-tetrahydroquinolin-6-yl)thiophene-2-carboximidamide dihydrochloride] | 22.5 µM |  | 0.31 µM | 7.5 | 0.28 |  | 9.08 |  | 
14 | N=C(Nc1ccc2c(c1)CCCCN2C1CCNCC1)c1cccs1 [Example 58, N-(1-(piperidin-4-yl)-2,3,4,5-tetrahydro-1H-benzo[b]azepin-7-yl)thiophene-2-carboximidamide] |  |  | 2.3 µM |  |  | > 100 µM |  | 66.3 | 
15 | CN(C)CCN1C(=O)CCCc2cc(NC(=N)c3cccs3)ccc21 [Example 25, N-(1-(2-(Dimethylamino)ethyl)-2-oxo-2,3,4,5-tetrahydro-1H-benzo[b]azepin-7-yl)thiophene-2-carboximidamide] | 151 µM | 12.3 | 12.3 µM |  |  | > 100 µM |  |  | 
16 | N=C(Nc1ccc2c(c1)CCCCN2CCN1CCCCC1)c1cccs1 [Example 40, N-(1-(2-(Piperidin-1-yl)ethyl)-2,3,4,5-tetrahydro-1H-benzo[b]azepin-7-yl)thiophene-2-carboximidamide] |  |  | 1.9 µM |  |  | > 100 µM |  | 56.3 | 
17 | CN(C)CCN1C(=O)CCCc2cccc(NC(=N)c3cccs3)c21 [Example 33, N-(1-(2-(Dimethylamino)ethyl)-2-oxo-2,3,4,5-tetrahydro-1H-benzo[b]azepin-9-yl)thiophene-2-carboximidamide] | 193 µM | 90 | 2.2 µM |  |  | > 100 µM |  |  | 
18 | CN(C)CCN1CCCc2cc(NC(=N)c3cccs3)cc(F)c21 [Example 42, N-(1-(2-(Dimethylamino)ethyl)-8-fluoro-1,2,3,4-tetrahydroquinolin-6-yl)thiophene-2-carboximidamide] |  |  | 0.09 µM |  |  | > 100 µM |  | 24.3 | 
19 | N=C(Nc1ccc2c(c1)CCCN2C1CCNC1)c1cccs1 (single isomer, unassigned; (+)) [Example 66, (+)-N-(1-(pyrrolidin-3-yl)-1,2,3,4-tetrahydroquinolin-6-yl)thiophene-2-carboximidamide dihydrochloride] | 14.2 µM |  | 0.01 µM | 2.9 | 0.1 |  |  |  | 
20 | CC1C(=O)N(C2CCN(C)CC2)c2ccc(NC(=N)c3cccs3)cc21 (stereo not shown) [Example 17, N-(3-Methyl-1-(1-methylpiperidin-4-yl)-2-oxoindolin-5-yl)thiophene-2-carboximidamide] |  |  |  |  |  |  |  |  | IC50 ([1]; heNOS IC50): 155 µM; Selectivity eNOS/nNOS [2]: 31; IC50 ([2]; hnNOS IC50): 4.9 µM; IC50 ([5]; hiNOS IC50): 57 µM
21 | CN1CCC(N2CCCc3cc(NC(=N)c4cccs4)ccc32)C1 (single isomer, unassigned) [Example 57, N-(1-(1-Methylpyrrolidin-3-yl)-1,2,3,4-tetrahydroquinolin-6-yl)thiophene-2-carboximidamide] | 199 µM | 622 | 0.32 µM |  | 0.504 | 40.4 µM | > 100 |  | 
22 | CN(C)CCCN1CCCc2cc(NC(=N)c3cccs3)ccc21 [Example 59, N-(1-(3-(Dimethylamino)propyl)-1,2,3,4-tetrahydroquinolin-6-yl)thiophene-2-carboximidamide] |  |  | 0.27 µM |  |  | 34.5 µM |  | 22.4 | 
23 | CN1CCCC1CCN1CCCc2cc(NC(=N)c3cccs3)cc(F)c21.Cl.Cl (stereo not shown) [Example 55, N-(8-Fluoro-1-(2-(1-methylpyrrolidin-2-yl)ethyl)-1,2,3,4-tetrahydroquinolin-6-yl)thiophene-2-carboximidamide dihydrochloride] | 14.5 µM | 181 | 0.08 µM |  |  | > 100 µM |  |  | 
